One data set addresses T1, HDAC1 (Homo sapiens, UniProt Q13547).
T1 construct: purchased Reaction Biology Corporation; host or cells: baculovirus expression system in SF9 cells
In words: HDAC inhibition assay (fluorogenic peptide, Reaction Biology). To be noted: tested once, ten-dose starting at 30 µM. It counts as biochemical.

The target of another data set is T2, HDAC8 (Homo sapiens, UniProt Q9BY41).
T2 construct: purchased Reaction Biology Corporation; host or cells: baculovirus expression system in SF9 cells
T2 sequence (Q9BY41 1-377): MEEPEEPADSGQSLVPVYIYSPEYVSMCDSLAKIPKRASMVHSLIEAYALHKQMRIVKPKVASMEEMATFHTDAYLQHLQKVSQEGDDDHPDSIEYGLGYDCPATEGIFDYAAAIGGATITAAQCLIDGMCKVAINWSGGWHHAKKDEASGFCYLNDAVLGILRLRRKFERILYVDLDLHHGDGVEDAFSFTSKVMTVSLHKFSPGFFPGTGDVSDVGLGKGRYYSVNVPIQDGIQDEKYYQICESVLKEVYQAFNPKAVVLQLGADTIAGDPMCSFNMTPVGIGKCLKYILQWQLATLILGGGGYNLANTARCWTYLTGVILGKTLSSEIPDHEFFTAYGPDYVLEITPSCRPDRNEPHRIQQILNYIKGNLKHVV
As to the kind of experiment: HDAC inhibition assay (fluorogenic diacylpeptide, Reaction Biology). The class given is biochemical. To be noted: tested once, ten-dose starting at 30 µM.

Another data set concerns the target T3, VEGFR2 (Homo sapiens, UniProt P35968).
T3 construct: purchased Reaction Biology Corporation
As to the kind of experiment: RTK in vitro enzymatic assay. It counts as biochemical. The settings on record: 20 μM ATP.

In a further data set the target is T4, ALK C1156Y (Homo sapiens, UniProt Q9UM73, C1156Y).
T4 construct: purchased Reaction Biology Corporation
As to the kind of experiment: ALK mutant in vitro enzymatic assay. It counts as biochemical. The settings on record: 20 μM ATP.

The target of another data set is T5, ALK F1174L (Homo sapiens, UniProt Q9UM73, F1174L).
T5 construct: purchased Reaction Biology Corporation
In words: ALK mutant in vitro enzymatic assay. It counts as biochemical. The settings on record: 20 μM ATP.

Data set [1] relates to protein expression level of HDAC1, HDAC6, or HDAC8. In words: Western blot of HDAC protein expression. The class given is cell-based, human. The settings on record: western blot after treatment (supplemental Figure S3). As for the experimental part: Treated cells were washed three times with ice-cold phosphate-buffered saline and lysed in lysis buffer containing 100 mM Tris-HCl, 12 mM sodium deoxycholate, 12 mM sodium lauroylsarcosinate, and protease inhibitor cocktail (BioTools). Cells were heated in lysis buffer at 95 °C for 5 min and then the cell membrane was broken up by sonication (Bioruptor). Cellular debris and unbroken cells were removed by centrifugation (12,500 × g for 30 min, 4 °C). Protein concentration was determined using the bicinchoninic acid assay (Thermo). Cell extracts (20 μg) were resolved by 12% sodium dodecyl sulfate-polyacrylamide gel electrophoresis (SDS-PAGE), transferred to PVDF membranes, and probed separately with antibodies for Ac-histone H3, Ac-α-tubulin, histone H3, α-tubulin, HDAC1, HDAC6, HDAC8 and GAPDH. The antibodies of GAPDH, HDAC1, and HDAC8 were purchased from ABclonal and all other antibodies were from Cell Signalling Technology. Antibody signals were detected using an enhanced chemiluminescence system.
Figure S3. Western blots of HDAC1, HDAC6, and HDAC8 after drug treatment and vehicle control
activity was assessed by MTS assay, and the concentration of inhibitors was determined to be half of their
was tested five times, and the results were normalized to 1. (blank) […]
(Immunoblotting shows a protein as a band on a membrane.)

For data set [2], the system named is human A549 tumour xenografts. In words: Human A549 tumour xenograft model. It counts as in vivo. As for the experimental part: […]. Xenografts were implanted by subcutaneous injection of A549 cells and then treatment with various dosages of 3b (0, 5, 10, 20 mg/kg by intraperitoneal injection once daily for 21 days) was initiated when tumour size was 10–20 mm^3. […] Moreover, tumour suppression continued for an additional 10 days after treatment was suspended.
The procedure for establishing tumour xenografts and the dosing of 3b were carried out in accordance with the National Taiwan University College of Medicine Laboratory Animal Centre ([…]) care and use committee. Female nude mice (BALB/cAnN.Cg-Foxn1nu/CrlNarl, 6–8 weeks old) were purchased from the National Laboratory Animal Centre (Taiwan). Mice were implanted subcutaneously in the right flank with 1 × 10^7 A549 cells (human NSCLC, in 1:1 PBS/Geltrex, 200 μL). Treatments were initiated when tumours were 10–20 mm^3 and continued for 21 consecutive days. Mice were randomly assigned to cohorts (n = 5 per group). Compound 3b (10 mg/kg) or vehicle (PBS + 5% DMSO + 10% Pharmasolve) was administered once daily (qd) via intraperitoneal (i.p.) injection. Tumour volume and body weight were assessed daily for 31 days from initiation of treatment. Calliper measurements of tumours were converted to mean tumour volume using the formula: 0.5 × (length × width[2]).
For orientation: In xenograft studies the graft and the host belong to different species.

The text below walks through data of article PMC10930102 (Journal of Enzyme Inhibition and Medicinal Chemistry, 2024).

pIC50: −log10 of the molar value. Entries after “also recorded” stand apart in the source; their conditions may differ.

The term pIC50 denotes the negative decadic logarithm of the IC50, by convention in mol/L. A lower pIC50 goes with a large IC50.

T3 sequence (P35968 20-1356): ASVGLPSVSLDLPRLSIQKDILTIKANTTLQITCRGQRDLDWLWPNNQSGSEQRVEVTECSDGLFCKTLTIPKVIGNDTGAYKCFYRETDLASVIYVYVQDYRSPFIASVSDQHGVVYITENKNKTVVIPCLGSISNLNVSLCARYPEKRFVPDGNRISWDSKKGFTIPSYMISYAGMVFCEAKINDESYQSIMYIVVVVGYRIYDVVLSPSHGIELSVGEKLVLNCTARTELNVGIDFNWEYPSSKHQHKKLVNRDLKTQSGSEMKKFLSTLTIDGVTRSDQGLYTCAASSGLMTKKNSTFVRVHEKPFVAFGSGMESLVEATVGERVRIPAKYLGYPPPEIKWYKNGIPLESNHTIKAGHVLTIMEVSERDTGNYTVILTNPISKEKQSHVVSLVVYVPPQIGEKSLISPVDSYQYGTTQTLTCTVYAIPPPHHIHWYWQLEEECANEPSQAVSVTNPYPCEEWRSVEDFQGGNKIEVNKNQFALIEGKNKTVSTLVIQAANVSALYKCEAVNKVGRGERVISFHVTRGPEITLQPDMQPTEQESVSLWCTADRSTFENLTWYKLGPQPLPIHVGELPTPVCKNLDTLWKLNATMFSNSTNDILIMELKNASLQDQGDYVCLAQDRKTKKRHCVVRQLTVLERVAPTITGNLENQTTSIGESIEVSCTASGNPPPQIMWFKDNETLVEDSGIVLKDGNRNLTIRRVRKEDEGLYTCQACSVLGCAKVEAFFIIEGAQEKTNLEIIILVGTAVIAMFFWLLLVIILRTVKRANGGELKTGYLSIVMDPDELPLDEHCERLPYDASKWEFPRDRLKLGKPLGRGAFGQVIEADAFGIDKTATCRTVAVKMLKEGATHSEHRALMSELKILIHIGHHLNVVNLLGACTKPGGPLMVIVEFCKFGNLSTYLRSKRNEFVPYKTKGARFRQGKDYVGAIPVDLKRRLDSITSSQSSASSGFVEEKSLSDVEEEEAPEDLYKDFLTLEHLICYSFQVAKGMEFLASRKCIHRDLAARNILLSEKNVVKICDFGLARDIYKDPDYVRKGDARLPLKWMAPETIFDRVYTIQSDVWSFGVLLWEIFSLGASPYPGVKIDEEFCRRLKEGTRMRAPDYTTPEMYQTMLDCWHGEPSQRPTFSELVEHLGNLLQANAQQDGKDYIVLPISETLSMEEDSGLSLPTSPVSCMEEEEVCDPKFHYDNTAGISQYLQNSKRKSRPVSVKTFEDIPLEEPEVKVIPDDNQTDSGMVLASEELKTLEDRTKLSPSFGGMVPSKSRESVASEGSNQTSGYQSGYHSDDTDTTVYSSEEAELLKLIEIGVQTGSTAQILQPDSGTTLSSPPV
T5 sequence (Q9UM73 19-1620 F1174L): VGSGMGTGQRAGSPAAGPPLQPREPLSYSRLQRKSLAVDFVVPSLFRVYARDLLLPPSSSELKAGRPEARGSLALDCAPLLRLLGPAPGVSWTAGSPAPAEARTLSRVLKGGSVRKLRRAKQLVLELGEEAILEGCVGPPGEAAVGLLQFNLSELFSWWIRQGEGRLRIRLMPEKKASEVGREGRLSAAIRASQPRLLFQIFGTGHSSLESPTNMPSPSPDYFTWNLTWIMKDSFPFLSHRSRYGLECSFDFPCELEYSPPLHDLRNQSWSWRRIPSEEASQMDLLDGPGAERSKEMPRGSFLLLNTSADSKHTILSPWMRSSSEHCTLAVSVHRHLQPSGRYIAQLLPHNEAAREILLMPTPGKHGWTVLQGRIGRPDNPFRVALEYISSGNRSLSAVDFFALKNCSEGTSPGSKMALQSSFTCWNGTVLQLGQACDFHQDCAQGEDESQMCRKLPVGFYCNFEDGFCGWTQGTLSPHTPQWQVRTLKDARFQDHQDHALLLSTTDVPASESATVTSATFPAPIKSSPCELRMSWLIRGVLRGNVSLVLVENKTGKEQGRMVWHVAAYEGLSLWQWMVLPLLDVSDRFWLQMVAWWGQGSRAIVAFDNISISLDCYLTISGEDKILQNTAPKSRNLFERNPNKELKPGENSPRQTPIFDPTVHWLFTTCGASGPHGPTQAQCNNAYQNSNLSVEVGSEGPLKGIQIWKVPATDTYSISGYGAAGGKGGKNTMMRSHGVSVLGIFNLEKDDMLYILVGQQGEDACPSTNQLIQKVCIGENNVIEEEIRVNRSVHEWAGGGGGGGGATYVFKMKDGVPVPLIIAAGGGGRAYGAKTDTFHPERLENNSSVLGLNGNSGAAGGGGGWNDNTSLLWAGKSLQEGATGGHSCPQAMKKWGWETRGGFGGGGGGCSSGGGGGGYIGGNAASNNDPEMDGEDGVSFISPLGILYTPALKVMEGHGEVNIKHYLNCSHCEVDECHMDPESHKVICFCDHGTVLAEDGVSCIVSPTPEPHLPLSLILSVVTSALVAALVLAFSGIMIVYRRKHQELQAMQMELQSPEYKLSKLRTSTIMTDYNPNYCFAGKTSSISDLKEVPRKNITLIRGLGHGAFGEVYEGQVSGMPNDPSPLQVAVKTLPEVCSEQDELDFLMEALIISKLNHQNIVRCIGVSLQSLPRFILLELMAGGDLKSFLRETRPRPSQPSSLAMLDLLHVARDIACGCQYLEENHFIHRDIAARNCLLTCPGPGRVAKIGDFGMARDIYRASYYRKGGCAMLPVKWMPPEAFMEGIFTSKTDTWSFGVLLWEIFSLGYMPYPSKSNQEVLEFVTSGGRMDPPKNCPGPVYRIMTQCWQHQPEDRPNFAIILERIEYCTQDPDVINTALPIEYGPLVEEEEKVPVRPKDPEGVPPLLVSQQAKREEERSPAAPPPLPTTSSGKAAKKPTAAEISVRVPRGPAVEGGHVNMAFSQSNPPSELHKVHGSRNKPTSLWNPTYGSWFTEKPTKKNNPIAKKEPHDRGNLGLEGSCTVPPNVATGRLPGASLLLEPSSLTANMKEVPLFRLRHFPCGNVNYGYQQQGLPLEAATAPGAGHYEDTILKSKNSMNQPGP
T1 sequence (Q13547 whole entry): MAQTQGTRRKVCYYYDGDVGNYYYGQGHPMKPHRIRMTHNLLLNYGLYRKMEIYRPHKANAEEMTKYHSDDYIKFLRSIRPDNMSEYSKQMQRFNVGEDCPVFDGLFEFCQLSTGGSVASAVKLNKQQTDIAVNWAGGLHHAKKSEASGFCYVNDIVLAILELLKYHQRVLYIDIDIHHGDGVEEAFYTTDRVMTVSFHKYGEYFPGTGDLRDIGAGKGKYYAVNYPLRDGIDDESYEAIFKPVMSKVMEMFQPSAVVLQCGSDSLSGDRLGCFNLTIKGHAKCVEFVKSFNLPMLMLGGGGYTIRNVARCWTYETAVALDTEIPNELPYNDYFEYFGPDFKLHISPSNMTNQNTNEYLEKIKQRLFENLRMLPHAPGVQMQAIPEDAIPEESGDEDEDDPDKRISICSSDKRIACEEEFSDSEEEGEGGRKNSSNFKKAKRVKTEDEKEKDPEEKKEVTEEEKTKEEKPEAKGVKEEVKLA
T4 sequence (Q9UM73 19-1620 C1156Y): as the sequence (Q9UM73 19-1620 F1174L) above, with C1138Y, L1156F counted along it

`CC(C)NC(=O)C1CCC(n2c(=NC(=O)c3ccccc3)[nH]c3cc(C=CC(=O)NO)ccc32)CC1` [Compound 3b, (E)-N-(5-((E)-3-(Hydroxyamino)-3-oxoprop-1-en-1-yl)-1-((1S,4S)-4-(isopropylcarbamoyl)cyclohexyl)-1H-benzo[d]imidazol-2(3H)-ylidene)benzamide]: the pIC50 against HDAC1 is 4.97; against HDAC8 it was 5.77; on VEGFR2, under 5.00; against ALK C1156Y, 8.01; against ALK F1174L, 7.23. The “protein expression level of HDAC1, HDAC6, or HDAC8” value in data set [1] is “not perturbed”. Besides, the “effect on tumour volume” value in data set [2] (5 mg/kg i.p. once daily for 21 days) is reported as “no significant effect”. Besides, the “decrease in mean tumour volume” value in data set [2] (10 mg/kg i.p. once daily for 21 days, day 21 of treatment) worked out at 68%; in data set [2] (10 mg/kg i.p. once daily for 21 days, day 31 (10 days after treatment suspended)) it was 80%; in data set [2] (20 mg/kg i.p. once daily for 21 days, day 21 of treatment), 85%; in data set [2] (20 mg/kg i.p. once daily for 21 days, day 31 (10 days after treatment suspended)), 86%. Also, the mean body weight entry in data set [2] (5, 10, 20 mg/kg i.p. once daily for 21 days, any treatment group) is “negligible effect; also recorded: not significantly affected”.
